Data as given in PubChem BioAssay (NCI).
Values joined by “and” are separate entries in the source; they are usually repeats but may differ in a detail not shown here. Equal values may be shown once.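 Step 1: Grow cells in 96-well plates. Step 2: Expose to compound for 48 hours at 5 concentrations. Step 3: Interpolate endpoints linearly; if unreached, use highest concentration. GI50 = concentration required for 50% inhibition of growth. At the TGI there is no net growth.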

Key:
Experiment in all cases: growth of human tumour cells (NCI), 48 h
A549 NSCLC = tested on: A549 NSCLC
ACHN renal = tested on: ACHN renal
COLO 205 colon = tested on: COLO 205 colon
HOP-62 NSCLC = tested on: HOP-62 NSCLC
SF-539 CNS = tested on: SF-539 CNS
SK-MEL-28 melanoma = tested on: SK-MEL-28 melanoma
SNB-75 CNS = tested on: SNB-75 CNS
SR leukemia = tested on: SR leukemia
T-47D breast = tested on: T-47D breast
TK-10 renal = tested on: TK-10 renal

Row | Structure (SMILES) | GI50 (A549 NSCLC) | TGI (A549 NSCLC) | GI50 (ACHN renal) | TGI (ACHN renal) | GI50 (COLO 205 colon) | TGI (COLO 205 colon) | GI50 (HOP-62 NSCLC) | TGI (HOP-62 NSCLC) | GI50 (SF-539 CNS) | TGI (SF-539 CNS) | GI50 (SK-MEL-28 melanoma) | TGI (SK-MEL-28 melanoma) | GI50 (SNB-75 CNS) | TGI (SNB-75 CNS) | GI50 (SR leukemia) | TGI (SR leukemia) | GI50 (T-47D breast) | TGI (T-47D breast) | GI50 (TK-10 renal) | TGI (TK-10 renal)
1 | COc1cc(/C=C/C(=O)c2cccc(-n3cc(-c4ccc(Cl)cc4)[nH]c3=O)c2)cc(OC)c1OC | 85.2 µM | > 100 µM | 7.17 µM | 19.5 µM | 7.38 µM | 20.2 µM | 23.6 µM | 57.3 µM | 3.49 µM | 14.3 µM | 10.9 µM | 25.6 µM | 20.5 µM | > 100 µM | 3.03 µM | > 100 µM | 6.65 µM | 51.5 µM | 6.46 µM | 71.5 µM
2 | CC(=O)NCc1cccc(C#Cc2cncnc2Nc2ccc(OCc3cccc(F)c3)c(Cl)c2)c1 | 6.47 µM | > 25 µM | 5.84 µM | > 25 µM | > 16.7 µM | > 25 µM | > 25 µM | > 25 µM | > 21.1 µM | > 25 µM | 19.8 µM | > 25 µM | > 21 µM | > 25 µM | > 25 µM | > 25 µM | 9.68 µM | > 25 µM | 1.97 µM | > 20.2 µM
3 | O=C1OC(C(O)CO)C(O)=C1O (stereo not given) | 2510 µM and > 4270 µM | 6010 µM and > 6460 µM | 1540 µM and 1610 µM | 2940 µM and 3060 µM | 2030 µM and 1830 µM | 3750 µM and 3420 µM | 2420 µM and 2940 µM | 4800 µM and 6210 µM | 1900 µM and 1390 µM | 3360 µM and 1830 µM | 2530 µM and > 10000 µM | 6230 µM and > 10000 µM | 2460 µM and > 4760 µM | 4050 µM and > 6140 µM | 349 µM and 292 µM | 877 µM and 924 µM | 2080 µM and 2100 µM | 4800 µM and 4380 µM | 9040 µM and > 4840 µM | > 10000 µM
4 | CN(CCNCc1ccccn1)CCNCc1ccccn1 | 2.95 µM | 8.07 µM | 2.2 µM | 5.82 µM | 2.53 µM | 6.02 µM | 3.85 µM | 22.6 µM | 2.06 µM | 5.33 µM | 2.64 µM | 8.17 µM | 3.04 µM | 16 µM | 3.71 µM | 43 µM | 3.43 µM | 28 µM | 2.19 µM | 6.94 µM
5 | OC(C#Cc1ccccc1)(c1ccccc1)c1ccccc1 |  | 52.9 µM |  | > 100 µM |  | > 100 µM |  | > 100 µM |  | > 100 µM |  | > 100 µM |  | > 100 µM |  | > 100 µM |  | 78.1 µM |  | 77.4 µM
6 | O=C1c2sccc2-c2cccc3cccc1c23 (tested in a mixture with another compound) |  | 16.8 µM |  | 12.2 µM |  | 15.6 µM |  | > 100 µM |  | 32.2 µM |  | > 100 µM |  | 37.3 µM |  | 2.02 µM |  | 28.2 µM |  | 22.6 µM
7 | COC1=C(OC)C(=O)C(SC/C=C(\C)CCCC(C)CCCC(C)CCCC(C)C)=CC1=O (stereo not given) | 2.83 µM | > 100 µM | 2.04 µM | > 100 µM | 8.49 µM | > 100 µM | 3.05 µM | > 100 µM | 1.41 µM | > 92.2 µM | 1.04 µM | > 100 µM | 0.972 µM | > 26.1 µM | 1.09 µM | > 100 µM | 0.478 µM | 12.1 µM | 2.46 µM | > 59.4 µM
